Source: BindingDB's records for doi:10.2165/00003495-200262180-00006 (Adis International, 2002)

Biological target: Prostaglandin G/H synthase 1 (Homo sapiens, UniProt P23219)
Sequence (P23219 whole entry): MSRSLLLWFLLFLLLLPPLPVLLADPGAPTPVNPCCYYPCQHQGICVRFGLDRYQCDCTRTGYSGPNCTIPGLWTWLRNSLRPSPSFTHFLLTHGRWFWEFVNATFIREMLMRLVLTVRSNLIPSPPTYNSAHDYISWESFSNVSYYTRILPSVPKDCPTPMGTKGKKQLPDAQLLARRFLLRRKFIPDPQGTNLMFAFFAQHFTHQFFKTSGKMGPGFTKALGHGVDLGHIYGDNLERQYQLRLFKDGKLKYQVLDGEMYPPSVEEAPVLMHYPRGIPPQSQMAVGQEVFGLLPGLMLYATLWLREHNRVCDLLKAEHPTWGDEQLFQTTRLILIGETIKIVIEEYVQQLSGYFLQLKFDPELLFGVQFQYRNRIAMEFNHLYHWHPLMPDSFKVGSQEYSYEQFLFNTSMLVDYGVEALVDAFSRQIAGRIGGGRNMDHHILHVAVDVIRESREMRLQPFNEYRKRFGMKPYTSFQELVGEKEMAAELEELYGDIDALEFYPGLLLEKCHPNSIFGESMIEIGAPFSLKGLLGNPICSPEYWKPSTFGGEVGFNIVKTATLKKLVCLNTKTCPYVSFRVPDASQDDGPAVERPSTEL

`Cc1ccc(-c2ncc(Cl)cc2-c2ccc(S(C)(=O)=O)cc2)cn1` was tested, and the Ki was greater than 10 µM.
